Where two headings read alike, the source gives them in different places.
Columns and labels:
Assay in all cases: biochemical
[1] = biological target: DYRK1B (Homo sapiens, UniProt Q9Y463); parameters: SelectScreen Z'-LYTE purified kinase panel, per cent inhibition, mean of two points; conditions: (μM)=Km app
[2] = biological target: PDGFRA (PDGFR alpha) (Homo sapiens, UniProt P16234); parameters: SelectScreen Z'-LYTE purified kinase panel, per cent inhibition, mean of two points; conditions: (μM)=Km app
Chain of PDGFRA (PDGFR alpha) (P16234 whole entry): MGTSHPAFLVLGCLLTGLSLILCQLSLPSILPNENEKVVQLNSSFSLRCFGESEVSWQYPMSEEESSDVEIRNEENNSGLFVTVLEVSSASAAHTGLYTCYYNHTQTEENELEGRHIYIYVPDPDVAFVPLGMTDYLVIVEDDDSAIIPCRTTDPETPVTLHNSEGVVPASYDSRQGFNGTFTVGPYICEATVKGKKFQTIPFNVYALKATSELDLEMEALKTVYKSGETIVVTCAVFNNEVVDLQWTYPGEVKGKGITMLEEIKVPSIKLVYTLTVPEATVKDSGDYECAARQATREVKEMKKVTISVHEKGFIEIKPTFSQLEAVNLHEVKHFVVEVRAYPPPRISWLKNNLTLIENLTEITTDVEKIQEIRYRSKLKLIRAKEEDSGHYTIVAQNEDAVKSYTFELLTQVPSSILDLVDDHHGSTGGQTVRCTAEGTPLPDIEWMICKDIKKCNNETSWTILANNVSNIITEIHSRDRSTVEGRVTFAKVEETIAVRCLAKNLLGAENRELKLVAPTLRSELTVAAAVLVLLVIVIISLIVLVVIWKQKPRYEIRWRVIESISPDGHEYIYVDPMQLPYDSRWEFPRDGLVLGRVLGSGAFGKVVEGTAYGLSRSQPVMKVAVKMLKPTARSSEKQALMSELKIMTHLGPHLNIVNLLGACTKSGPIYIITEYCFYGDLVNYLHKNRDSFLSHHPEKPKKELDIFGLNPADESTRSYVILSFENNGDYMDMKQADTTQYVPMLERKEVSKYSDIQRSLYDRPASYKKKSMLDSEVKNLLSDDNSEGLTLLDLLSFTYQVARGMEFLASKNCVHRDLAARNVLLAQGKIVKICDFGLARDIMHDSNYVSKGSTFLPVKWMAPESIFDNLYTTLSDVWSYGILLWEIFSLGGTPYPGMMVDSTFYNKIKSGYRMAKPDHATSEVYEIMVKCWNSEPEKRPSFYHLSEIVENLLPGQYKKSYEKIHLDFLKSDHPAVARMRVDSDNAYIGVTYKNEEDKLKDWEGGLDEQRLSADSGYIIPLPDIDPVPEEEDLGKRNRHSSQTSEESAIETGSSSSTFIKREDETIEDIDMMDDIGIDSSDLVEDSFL

[3] = biological target: JAK2 (Homo sapiens, UniProt O60674); parameters: SelectScreen Z'-LYTE purified kinase panel, per cent inhibition, mean of two points; conditions: (μM)=Km app
Chain of JAK2 (O60674 whole entry): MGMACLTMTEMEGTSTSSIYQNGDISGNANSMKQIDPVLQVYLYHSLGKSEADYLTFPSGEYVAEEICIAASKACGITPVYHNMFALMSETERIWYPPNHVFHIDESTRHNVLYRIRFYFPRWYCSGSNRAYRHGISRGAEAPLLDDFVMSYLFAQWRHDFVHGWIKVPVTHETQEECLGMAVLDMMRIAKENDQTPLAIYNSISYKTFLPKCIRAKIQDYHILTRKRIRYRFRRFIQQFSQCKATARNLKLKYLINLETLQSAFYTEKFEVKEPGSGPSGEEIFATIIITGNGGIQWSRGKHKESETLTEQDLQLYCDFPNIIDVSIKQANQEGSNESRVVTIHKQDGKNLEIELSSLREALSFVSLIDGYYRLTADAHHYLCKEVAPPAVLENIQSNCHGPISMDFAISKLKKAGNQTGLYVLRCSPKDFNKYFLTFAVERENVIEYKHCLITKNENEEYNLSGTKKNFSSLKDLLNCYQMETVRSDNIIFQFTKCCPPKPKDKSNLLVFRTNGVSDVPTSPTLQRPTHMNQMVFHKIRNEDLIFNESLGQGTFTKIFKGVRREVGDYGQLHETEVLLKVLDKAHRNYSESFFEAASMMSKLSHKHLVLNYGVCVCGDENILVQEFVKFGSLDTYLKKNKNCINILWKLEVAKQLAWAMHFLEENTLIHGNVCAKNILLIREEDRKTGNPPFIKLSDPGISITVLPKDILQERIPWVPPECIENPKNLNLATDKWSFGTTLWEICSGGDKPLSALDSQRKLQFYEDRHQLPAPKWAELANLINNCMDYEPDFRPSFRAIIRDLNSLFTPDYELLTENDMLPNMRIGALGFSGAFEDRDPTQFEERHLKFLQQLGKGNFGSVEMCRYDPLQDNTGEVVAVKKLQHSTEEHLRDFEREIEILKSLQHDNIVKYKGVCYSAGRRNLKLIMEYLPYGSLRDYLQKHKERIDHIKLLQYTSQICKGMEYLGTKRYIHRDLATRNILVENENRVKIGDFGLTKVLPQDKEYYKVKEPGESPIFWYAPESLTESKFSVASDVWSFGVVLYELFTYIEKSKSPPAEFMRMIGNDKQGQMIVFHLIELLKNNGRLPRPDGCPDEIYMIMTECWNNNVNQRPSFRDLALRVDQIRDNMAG

[4] = biological target: PIM2 (Homo sapiens, UniProt Q9P1W9); parameters: SelectScreen Z'-LYTE purified kinase panel, per cent inhibition, mean of two points; conditions: (μM)=Km app
Chain of PIM2 (Q9P1W9 whole entry): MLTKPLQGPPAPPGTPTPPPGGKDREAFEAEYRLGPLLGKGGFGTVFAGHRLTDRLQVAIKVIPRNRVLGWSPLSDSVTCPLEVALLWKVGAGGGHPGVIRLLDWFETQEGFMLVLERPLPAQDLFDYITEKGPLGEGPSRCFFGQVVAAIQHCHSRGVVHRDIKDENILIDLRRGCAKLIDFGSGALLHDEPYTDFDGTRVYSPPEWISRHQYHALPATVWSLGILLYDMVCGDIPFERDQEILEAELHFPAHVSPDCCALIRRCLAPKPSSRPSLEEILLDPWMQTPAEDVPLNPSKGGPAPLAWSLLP

[5] = biological target: PTK2 (FAK) (Homo sapiens, UniProt Q05397); parameters: SelectScreen Z'-LYTE purified kinase panel, per cent inhibition, mean of two points; conditions: (μM)=Km app
Chain of PTK2 (FAK) (Q05397 whole entry): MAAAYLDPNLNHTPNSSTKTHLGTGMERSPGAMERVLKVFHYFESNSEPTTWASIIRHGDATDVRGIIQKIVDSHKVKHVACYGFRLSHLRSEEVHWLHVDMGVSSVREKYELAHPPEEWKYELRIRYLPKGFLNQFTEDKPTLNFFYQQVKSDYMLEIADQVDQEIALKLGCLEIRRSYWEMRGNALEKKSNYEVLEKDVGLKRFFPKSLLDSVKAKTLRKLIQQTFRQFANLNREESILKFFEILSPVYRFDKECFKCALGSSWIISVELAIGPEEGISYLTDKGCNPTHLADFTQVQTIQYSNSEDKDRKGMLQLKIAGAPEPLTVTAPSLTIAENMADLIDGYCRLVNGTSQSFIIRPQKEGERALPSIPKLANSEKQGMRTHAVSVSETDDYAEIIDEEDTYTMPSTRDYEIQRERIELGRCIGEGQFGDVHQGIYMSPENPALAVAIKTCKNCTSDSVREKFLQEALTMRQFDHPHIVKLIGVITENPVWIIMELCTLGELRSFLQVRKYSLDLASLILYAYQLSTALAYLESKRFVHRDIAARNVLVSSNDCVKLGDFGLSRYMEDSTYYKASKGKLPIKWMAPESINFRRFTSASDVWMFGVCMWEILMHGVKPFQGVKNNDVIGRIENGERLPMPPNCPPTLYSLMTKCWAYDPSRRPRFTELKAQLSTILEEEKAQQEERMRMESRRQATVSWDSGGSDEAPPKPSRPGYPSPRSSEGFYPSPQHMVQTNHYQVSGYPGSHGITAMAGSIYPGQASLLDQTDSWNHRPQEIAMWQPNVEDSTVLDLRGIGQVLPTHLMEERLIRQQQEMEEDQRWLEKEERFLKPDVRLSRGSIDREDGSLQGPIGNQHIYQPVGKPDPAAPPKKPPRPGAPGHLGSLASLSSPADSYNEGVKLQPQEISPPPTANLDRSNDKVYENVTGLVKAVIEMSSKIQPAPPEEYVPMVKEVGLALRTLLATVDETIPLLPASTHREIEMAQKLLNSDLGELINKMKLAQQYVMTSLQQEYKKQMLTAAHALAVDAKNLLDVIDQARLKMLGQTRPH

[6] = biological target: T1, ZAP70 (Homo sapiens, UniProt P43403); parameters: SelectScreen Z'-LYTE purified kinase panel, per cent inhibition, mean of two points; conditions: (μM)=Km app
T1 sequence (P43403 1-619): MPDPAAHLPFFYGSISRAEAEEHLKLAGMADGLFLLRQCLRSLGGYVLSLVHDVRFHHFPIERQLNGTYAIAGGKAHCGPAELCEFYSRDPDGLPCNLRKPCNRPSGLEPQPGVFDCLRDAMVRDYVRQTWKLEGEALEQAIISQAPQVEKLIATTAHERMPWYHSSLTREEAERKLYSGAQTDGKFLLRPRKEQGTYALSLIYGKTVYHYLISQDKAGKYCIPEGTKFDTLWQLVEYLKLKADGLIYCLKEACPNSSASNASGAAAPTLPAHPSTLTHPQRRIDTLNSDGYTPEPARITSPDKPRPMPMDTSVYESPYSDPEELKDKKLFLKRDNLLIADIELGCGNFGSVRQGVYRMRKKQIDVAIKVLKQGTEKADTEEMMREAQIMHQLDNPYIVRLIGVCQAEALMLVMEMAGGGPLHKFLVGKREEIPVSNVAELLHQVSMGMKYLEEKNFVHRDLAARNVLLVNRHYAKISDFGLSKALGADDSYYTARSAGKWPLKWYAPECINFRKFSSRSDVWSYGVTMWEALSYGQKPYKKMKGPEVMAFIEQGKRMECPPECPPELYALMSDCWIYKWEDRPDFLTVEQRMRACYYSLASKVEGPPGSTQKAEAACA

[7] = biological target: T2, JAK2 JH1 JH2 (Homo sapiens, UniProt O60674); parameters: SelectScreen Z'-LYTE purified kinase panel, per cent inhibition, mean of two points; conditions: (μM)=Km app
T2 construct: JH1 JH2
T2 sequence (O60674 whole entry): as the sequence (O60674 whole entry) above

[8] = biological target: PRKACA (PKA) (Homo sapiens, UniProt P17612); parameters: SelectScreen Z'-LYTE purified kinase panel, per cent inhibition, mean of two points; conditions: (μM)=Km app
[9] = biological target: AKT2 (PKB beta) (Homo sapiens, UniProt P31751); parameters: SelectScreen Z'-LYTE purified kinase panel, per cent inhibition, mean of two points; conditions: (μM)=Km app
[10] = biological target: MAPK11 (p38 beta) (Homo sapiens, UniProt Q15759); parameters: SelectScreen Z'-LYTE purified kinase panel, per cent inhibition, mean of two points; conditions: (μM)=Km app
Chain of MAPK11 (p38 beta) (Q15759 whole entry): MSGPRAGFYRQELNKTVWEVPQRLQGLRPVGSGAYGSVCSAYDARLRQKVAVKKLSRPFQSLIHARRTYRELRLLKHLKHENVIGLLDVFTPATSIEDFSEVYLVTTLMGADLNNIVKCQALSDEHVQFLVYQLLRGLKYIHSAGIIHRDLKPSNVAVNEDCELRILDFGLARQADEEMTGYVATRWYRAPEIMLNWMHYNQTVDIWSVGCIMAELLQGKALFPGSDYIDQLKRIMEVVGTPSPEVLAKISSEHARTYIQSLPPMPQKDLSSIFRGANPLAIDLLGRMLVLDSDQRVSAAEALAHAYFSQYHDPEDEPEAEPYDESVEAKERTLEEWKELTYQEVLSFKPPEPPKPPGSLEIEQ

[11] = biological target: MAPK14 (p38 alpha) (Homo sapiens, UniProt Q16539); parameters: SelectScreen Z'-LYTE purified kinase panel, per cent inhibition, mean of two points; conditions: (μM)=100
Chain of MAPK14 (p38 alpha) (Q16539 whole entry): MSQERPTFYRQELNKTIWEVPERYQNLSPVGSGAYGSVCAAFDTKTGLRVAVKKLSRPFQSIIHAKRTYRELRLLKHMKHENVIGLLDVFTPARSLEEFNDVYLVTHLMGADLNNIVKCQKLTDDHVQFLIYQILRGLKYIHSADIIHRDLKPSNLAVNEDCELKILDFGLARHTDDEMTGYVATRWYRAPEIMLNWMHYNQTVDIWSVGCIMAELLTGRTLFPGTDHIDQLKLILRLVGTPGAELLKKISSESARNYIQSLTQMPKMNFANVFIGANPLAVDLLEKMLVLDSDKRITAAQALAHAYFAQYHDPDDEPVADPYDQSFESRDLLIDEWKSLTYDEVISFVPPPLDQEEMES

[12] = biological target: T3, PDK1 (Homo sapiens, UniProt O15530); parameters: SelectScreen Z'-LYTE purified kinase panel, per cent inhibition, mean of two points; conditions: (μM)=100
T3 construct: gene PDPK1
T3 sequence (O15530 1-556): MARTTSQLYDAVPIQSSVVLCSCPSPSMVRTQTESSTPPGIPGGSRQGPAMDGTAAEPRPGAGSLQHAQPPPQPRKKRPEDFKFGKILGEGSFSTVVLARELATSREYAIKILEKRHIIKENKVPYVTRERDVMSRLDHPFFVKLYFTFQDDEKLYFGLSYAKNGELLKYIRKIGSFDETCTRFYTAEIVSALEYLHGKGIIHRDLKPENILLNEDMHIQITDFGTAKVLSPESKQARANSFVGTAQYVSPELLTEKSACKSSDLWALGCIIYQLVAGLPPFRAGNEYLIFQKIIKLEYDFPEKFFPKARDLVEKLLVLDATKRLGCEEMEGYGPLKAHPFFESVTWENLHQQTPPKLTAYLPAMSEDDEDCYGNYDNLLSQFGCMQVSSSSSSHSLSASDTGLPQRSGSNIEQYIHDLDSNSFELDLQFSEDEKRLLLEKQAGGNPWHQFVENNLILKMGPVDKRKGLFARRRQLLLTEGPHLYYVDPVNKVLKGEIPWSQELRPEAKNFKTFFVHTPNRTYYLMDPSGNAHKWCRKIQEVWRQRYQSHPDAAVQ

[13] = biological target: T4, PI3KC2γ (Homo sapiens, UniProt O75747); parameters: ADP-Glo lipid kinase assay with liver PI substrate, luminescence
T4 construct: gene PIK3C2G

Chain of DYRK1B (Q9Y463 whole entry): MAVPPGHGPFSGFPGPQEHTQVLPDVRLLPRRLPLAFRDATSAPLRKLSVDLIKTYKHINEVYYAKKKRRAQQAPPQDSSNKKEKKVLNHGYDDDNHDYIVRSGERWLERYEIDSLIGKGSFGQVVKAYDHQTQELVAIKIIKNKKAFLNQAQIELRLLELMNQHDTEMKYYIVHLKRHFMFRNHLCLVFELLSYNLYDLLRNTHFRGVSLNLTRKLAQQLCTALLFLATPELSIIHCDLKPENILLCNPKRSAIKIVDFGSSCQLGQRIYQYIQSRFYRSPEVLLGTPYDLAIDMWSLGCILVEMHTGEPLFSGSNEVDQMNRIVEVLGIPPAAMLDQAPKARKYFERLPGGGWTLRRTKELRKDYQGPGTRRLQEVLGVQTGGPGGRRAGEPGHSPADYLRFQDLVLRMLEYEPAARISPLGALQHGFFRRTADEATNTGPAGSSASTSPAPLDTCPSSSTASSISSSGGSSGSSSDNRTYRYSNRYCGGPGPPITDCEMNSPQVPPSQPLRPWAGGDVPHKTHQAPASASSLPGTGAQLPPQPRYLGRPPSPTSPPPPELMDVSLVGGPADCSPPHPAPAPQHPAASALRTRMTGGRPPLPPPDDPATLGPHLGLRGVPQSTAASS

Compound	inhibition at 1 µM [1]	inhibition at 3 µM [1]	inhibition at 10 µM [1]	inhibition at 1 µM [2]	inhibition at 3 µM [2]	inhibition at 10 µM [2]	inhibition at 1 µM [3]	inhibition at 3 µM [3]	inhibition at 10 µM [3]	inhibition at 1 µM [4]	inhibition at 3 µM [4]	inhibition at 10 µM [4]	inhibition at 1 µM [5]	inhibition at 3 µM [5]	inhibition at 10 µM [5]	inhibition at 1 µM [6]	inhibition at 3 µM [6]	inhibition at 10 µM [6]	inhibition at 1 µM [7]	inhibition at 3 µM [7]	other results
O=C(CSc1nc2nccnc2c(=O)n1CCc1ccccc1)Nc1nccs1 [compound 1, PITCOIN1]	-3.1%	-1.26%	-0.107%	8.94%	1.9%	4.84%	0.852%	-8.02%	-7.27%	-5.29%	-3.77%	-7.86%	4.94%	3.7%	2.3%	13.7%	11.6%	9.43%	-0.97%	-0.0652%	inhibition at 10 µM [7]: -0.468%; inhibition at 1 µM [8]: 9.73%; inhibition at 3 µM [8]: 5.23%; inhibition at 10 µM [8]: 4.58%; inhibition at 1 µM [9]: 4.3%; inhibition at 3 µM [9]: 3.38%; inhibition at 10 µM [9]: 4.53%; inhibition at 1 µM [10]: 9.02%; inhibition at 3 µM [10]: 8.06%; inhibition at 10 µM [10]: 7.22%; inhibition at 1 µM [11]: -3.25%; inhibition at 3 µM [11]: -1.99%; inhibition at 10 µM [11]: -0.632%; inhibition at 1 µM [12]: 8.23%; inhibition at 3 µM [12]: 7.27%; inhibition at 10 µM [12]: 6.69%
O=C(CSc1nc2nccnc2c(=O)n1CCc1ccccc1)Nc1nc(-c2cccc(O)c2)cs1 [compound 2, PITCOIN2]	–	–	–	–	–	–	–	–	–	–	–	–	–	–	–	–	–	–	–	–	IC50 ([13]; read-out: PITCOIN2 (IC50)): > 10 µM
CS(=O)(=O)Nc1cccc(-c2csc(NC(=O)CSc3nc4nccnc4c(=O)n3CCc3ccccc3)n2)c1 [compound 3, PITCOIN3]	-3%	-3.02%	-2.65%	1.77%	20.1%	16.3%	-4.04%	-2.51%	-3.7%	-0.888%	-5.98%	-4.75%	9.45%	8.02%	6.38%	17.4%	12.6%	14.5%	0.755%	0.839%	inhibition at 10 µM [7]: 1.69%; inhibition at 1 µM [8]: 9.77%; inhibition at 3 µM [8]: 8.29%; inhibition at 10 µM [8]: 5.74%; inhibition at 1 µM [9]: 6.93%; inhibition at 3 µM [9]: 6.2%; inhibition at 10 µM [9]: 4.52%; inhibition at 1 µM [10]: 10.5%; inhibition at 3 µM [10]: 8.66%; inhibition at 10 µM [10]: 4.91%; inhibition at 1 µM [11]: 1.55%; inhibition at 3 µM [11]: 6.76%; inhibition at 10 µM [11]: 2.67%; inhibition at 1 µM [12]: 9.47%; inhibition at 3 µM [12]: 5.91%; inhibition at 10 µM [12]: 10.5%; IC50 ([13]; read-out: PITCOIN3 (IC50)): > 10 µM

— PMC7613998, “Development of selective inhibitors of phosphatidylinositol 3-kinase C2α” (Nature Chemical Biology, 2022)
